Assay results from US6656949B1, “4-anilinofuro [3,2-c] quinoline derivatives, and preparation processes and uses of the same” (Kaohsiung Medical University, priority 2002, dated 2003).
Structures can show the parent of a compound that is named as a salt. Where two headings read alike, the source gives them in different places.

Key:
[1] = test system: CCRF-CEM, HL-60 (TB), K-562, MOLT-4, RPMI-8226, and SR of leukemia; experiment: In vitro anticancer assay (NCI tumor cells screen), leukemia panel; format: cell-based; details: leukemia cell lines, read-out: GI50 (drug molar concentration causing 50% cell growth inhibition), Leukemia
[2] = test system: A549/ATCC, EKVX, HOP-62, HOP-92, NCI-H226, NCI-H23, NCI-H322M, and NCI-H522 of non-small cell lung cancer; experiment: In vitro anticancer assay (NCI tumor cells screen), lung cancer panel; format: cell-based, human; details: non-small cell lung cancer cell lines, read-out: GI50 (drug molar concentration causing 50% cell growth inhibition), Lung Cancer
[3] = test system: COLO 205, HCC-2998, HCT-116, HCT-15, HT29, KM12, and SW-620 of colon cancer; experiment: In vitro anticancer assay (NCI tumor cells screen), colon cancer panel; format: cell-based, human; details: colon cancer cell lines, read-out: GI50 (drug molar concentration causing 50% cell growth inhibition), Colon Cancer
[4] = test system: SF-268, SF-295, SF-539, SNB-19, SNB-75, and U251 of CNS cancer; experiment: In vitro anticancer assay (NCI tumor cells screen), CNS cancer panel; format: cell-based, human; details: CNS cancer cell lines, read-out: GI50 (drug molar concentration causing 50% cell growth inhibition), CNS Cancer
[5] = test system: LOX IMVI, MALME-3M, M14, SK-MEL-2, SK-MEL-28, SK-MEL-5, UACC-62, and UACC-257 of melanoma; experiment: In vitro anticancer assay (NCI tumor cells screen), melanoma panel; format: cell-based, human; details: melanoma cell lines, read-out: GI50 (drug molar concentration causing 50% cell growth inhibition), Melanoma
[6] = test system: IGROV1, OVCAR-3, OVCAR-4, OVCAR-5, OVCAR-8, and SK-OV-3 of ovarian cancer; experiment: In vitro anticancer assay (NCI tumor cells screen), ovarian cancer panel; format: cell-based, human; details: ovarian cancer cell lines, read-out: GI50 (drug molar concentration causing 50% cell growth inhibition), Ovarian Cancer
[7] = test system: 786-0, A498, ACHN, CAKI-1, RXF 393, SN12C, TK-10, and UO-31 of renal cancer; experiment: In vitro anticancer assay (NCI tumor cells screen), renal cancer panel; format: cell-based, human; details: renal cancer cell lines, read-out: GI50 (drug molar concentration causing 50% cell growth inhibition), Renal Cancer
[8] = test system: PC-3 and DU-145 of prostate cancer; experiment: In vitro anticancer assay (NCI tumor cells screen), prostate cancer panel; format: cell-based, human; details: prostate cancer cell lines, read-out: GI50 (drug molar concentration causing 50% cell growth inhibition), Prostate Cancer
[9] = test system: MCF7, MCF7/ADR-RES, MDA-MB-231/ATCC, HS 578T, MDA-MB-435, MDA-N, and T-47D of breast cancer; experiment: In vitro anticancer assay (NCI tumor cells screen), breast cancer panel; format: cell-based, human; details: breast cancer cell lines, read-out: GI50 (drug molar concentration causing 50% cell growth inhibition), Breast Cancer
[10] = test system: 60 human tumor cell lines; experiment: In vitro anticancer assay (NCI tumor cells screen), mean over 60 cell lines; format: cell-based; details: mean values over 60 cell lines tested
UACC-257 = experiment: In vitro anticancer assay (NCI tumor cells screen), UACC-257; format: cell-based; details: Homo sapiens; melanoma cell line UACC-257; read-out: GI50 against UACC-257
UACC-62 = experiment: In vitro anticancer assay (NCI tumor cells screen), UACC-62; format: cell-based; details: Homo sapiens; melanoma cell line UACC-62; read-out: GI50 against UACC-62
UO-31 = experiment: In vitro anticancer assay (NCI tumor cells screen), UO-31; format: cell-based; details: Homo sapiens; renal cancer cell line UO-31; read-out: GI50 against UO-31

| Compound | melting point | GI50 ([1]; Homo sapiens) | GI50 ([2]; Homo sapiens) | GI50 ([3]; Homo sapiens) | GI50 ([4]; Homo sapiens) | GI50 ([5]; Homo sapiens) | GI50 ([6]; Homo sapiens) | GI50 ([7]; Homo sapiens) | GI50 ([8]; Homo sapiens, DU-145) | GI50 ([9]; Homo sapiens) | GI50 ([10]; Homo sapiens) | GI50 (UACC-257) | GI50 (UACC-62) | GI50 (UO-31) | further results |
| --- | --- | --- | --- | --- | --- | --- | --- | --- | --- | --- | --- | --- | --- | --- | --- |
| CC(=NO)c1cccc(Nc2nc3ccccc3c3occc23)c1 (as salt: HCl) [Compound 4, 1-[3-(furo[3,2-c]quinolin-4-ylamino)phenyl]ethanone oxime] | 164 °C (dec.) |  |  |  |  |  |  |  |  |  |  |  |  |  |  |
| CON=C(C)c1cccc(Nc2nc3ccccc3c3occc23)c1 (as salt: HCl) [Compound 5, 1-[3-(furo[3,2-c]quinolin-4-ylamino)phenyl]ethanone O-methyloxime] | 222 to 223 °C |  |  |  |  |  |  |  |  |  |  |  |  |  |  |
| CC(=O)c1cccc(Nc2nc3ccccc3c3occc23)c1 [Compound 3] |  |  |  |  |  |  |  |  |  |  |  |  |  |  | GI50 [1]: 91.2 µM; GI50 [2]: 15.5 µM; GI50 [3]: 42.8 µM; GI50 [4]: 19.1 µM; GI50 [5]: 40.2 µM; GI50 [6]: 28.4 µM; GI50 [7]: 16.1 µM; GI50 [8]: 32.5 µM; GI50 [9]: 34 µM; GI50 [10]: 22.5 µM |
| CC(=NO)c1cccc(Nc2nc3ccccc3c3occc23)c1 [Compound 4, 1-[3-(furo[3,2-c]quinolin-4-ylamino)phenyl]ethanone oxime] |  | 9.26 µM | 8.98 µM | 10.3 µM | 14.8 µM | 9.82 µM | 14.5 µM | 10.3 µM | 12.7 µM | 12 µM | 7.8 µM | < 0.01 µM | < 0.01 µM | 0.03 µM |  |
| CON=C(C)c1cccc(Nc2nc3ccccc3c3occc23)c1 [Compound 5, 1-[3-(furo[3,2-c]quinolin-4-ylamino)phenyl]ethanone O-methyloxime] |  | 15.4 µM | 10.8 µM | 10.3 µM | 14.8 µM | 11 µM | 15.2 µM | 10.1 µM | 15.2 µM | 13.1 µM | 8.78 µM | 0.042 µM | < 0.01 µM | < 0.01 µM |  |
